Our source for the Ki values is ChEMBL document CHEMBL5725865, “Neprilysin inhibitors” (2018).

This experiment is described as follows: Enzyme NEP Inhibition Assay: The assays were performed in 384-well white opaque plates at 37° C. using the fluorogenic peptide substrates at a concentration of 10 μM in Assay Buffer (NEP: 50 mM HEPES, pH 7.5, 100 mM NaCl, 0.01% polyethylene glycol sorbitan monolaurate (Tween-20), 10 μM ZnSO4; ACE: 50 mM HEPES, pH 7.5, 100 mM NaCl, 0.01% Tween-20, 1 μM ZnSO4). The respective enzymes were used at ….

Each structure is given as a SMILES string.

Description: Enzyme NEP Inhibition Assay: The assays were performed in 384-well white opaque plates at 37° C. using the fluorogenic peptide substrates at a concentration of 10 μM in Assay Buffer (NEP: 50 mM HEPES, pH 7.5, 100 mM NaCl, 0.01% polyethylene glycol sorbitan monolaurate (Tween-20), 10 μM ZnSO4; ACE: 50 mM HEPES, pH 7.5, 100 mM NaCl, 0.01% Tween-20, 1 μM ZnSO4). […] Test compounds were added to the enzymes and incubated for 30 minute at 37° C. prior to initiating the reaction by the addition of substrate.

By Ki is commonly meant a measure of affinity in units of concentration, obtained from inhibition or displacement. As to `O=C(O)C(=O)N[C@H](Cc1ccc(-c2ccccc2)cc1)CC(O)C(=O)O` (stereo partly specified), the inhibition constant Ki result was “in the range around 35.5 nM”.
